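1) Cells in 96-well plates. 2) Compound, 48 h, 5 concentrations. 3) Linear interpolation between surrounding doses. 4) Unreached endpoint = highest concentration. GI50 is the concentration that inhibits growth by half.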 Calls of active or inactive are those of the source. No stated cut-off is given here; in the data, active = GI50 up to about 1.1 µM and inactive = higher.
Legend:
Test in all cases: inhibition of tumour cell growth, NCI panel, 48 h
NCI-H460 = test system: NCI-H460
MCF7 = test system: MCF7
K562 = test system: K562
SW-620 = test system: SW-620
U-251 = test system: U-251
HCT-15 = test system: HCT-15
HT-29 = test system: HT-29
RPMI-8226 = test system: RPMI-8226
A549 = test system: A549
NCI/ADR-RES = test system: NCI/ADR-RES
KM-20L2 = test system: KM-20L2
SF-295 = test system: SF-295
OVCAR-3 = test system: OVCAR-3
SNB-78 = test system: SNB-78
OVCAR-5 = test system: OVCAR-5
CCRF-CEM = test system: CCRF-CEM
SNB-19 = test system: SNB-19
EKVX = test system: EKVX
ACHN = test system: ACHN
TK-10 = test system: TK-10

| Compound | GI50 (NCI-H460) | GI50 (MCF7) | GI50 (K562) | GI50 (SW-620) | GI50 (U-251) | GI50 (HCT-15) | GI50 (HT-29) | GI50 (RPMI-8226) | GI50 (A549) | GI50 (NCI/ADR-RES) | GI50 (KM-20L2) | GI50 (SF-295) | GI50 (OVCAR-3) | GI50 (SNB-78) | GI50 (OVCAR-5) | GI50 (CCRF-CEM) | GI50 (SNB-19) | GI50 (EKVX) | GI50 (ACHN) | GI50 (TK-10) |
| --- | --- | --- | --- | --- | --- | --- | --- | --- | --- | --- | --- | --- | --- | --- | --- | --- | --- | --- | --- | --- |
| CSc1nc(NC2OC(CO)C(O)C(O)C2O)c(N)c(=O)[nH]1 (stereo unspecified) | > 100 µM (inactive) | > 100 µM (inactive) | > 100 µM (inactive) | > 100 µM (inactive) | > 100 µM (inactive) | > 100 µM | > 100 µM (inactive) | > 100 µM (inactive) | > 100 µM (inactive) | > 100 µM (inactive) | > 100 µM (inactive) | > 100 µM (inactive) | > 100 µM (inactive) | > 100 µM (inactive) | > 100 µM (inactive) | > 100 µM (inactive) | > 100 µM (inactive) | > 100 µM (inactive) |  |  |
| NC(CCP(=O)(O)CCC1C=CC=CC1)C(=O)O (stereo unspecified) | > 100 µM (inactive) |  | > 100 µM (inactive) | > 100 µM (inactive) | > 100 µM (inactive) | > 100 µM | > 100 µM (inactive) | > 100 µM (inactive) | > 100 µM (inactive) | > 100 µM (inactive) |  | > 100 µM (inactive) | > 100 µM (inactive) |  | > 100 µM (inactive) | > 100 µM (inactive) | > 100 µM (inactive) | > 100 µM (inactive) | > 100 µM (inactive) | > 100 µM (inactive) |
| COc1ccc(C2SCc3nc4ccccc4n32)cc1 (stereo unspecified) | 3.86 µM (inactive) |  | 2.34 µM (inactive) | 3.44 µM (inactive) | 3.33 µM (inactive) | 3.16 µM | 2.4 µM (inactive) | 2.96 µM (inactive) |  |  | 2.4 µM (inactive) | 2.94 µM (inactive) | 6.28 µM (inactive) | 8.95 µM (inactive) |  | 3.49 µM (inactive) | 6.07 µM (inactive) | 19.5 µM (inactive) | 5.04 µM (inactive) | 23.2 µM (inactive) |
| O=C(Nc1ccccc1F)c1c(O)nc2sccn2c1=O | > 10 µM (inactive) | > 10 µM (inactive) |  | > 10 µM (inactive) | > 10 µM (inactive) | > 10 µM | > 10 µM (inactive) | > 10 µM (inactive) | > 10 µM (inactive) | > 10 µM (inactive) |  | > 10 µM (inactive) | > 10 µM (inactive) |  | > 10 µM (inactive) | > 10 µM (inactive) | > 10 µM (inactive) | > 10 µM (inactive) | > 10 µM (inactive) | > 10 µM (inactive) |
| CCOC(=O)CSc1nc(N)c2c(-c3ccc(OC)c(OC)c3)c3c(nc2n1)CCCC3 | > 100 µM (inactive) | > 100 µM (inactive) | > 100 µM (inactive) | > 100 µM (inactive) | > 100 µM (inactive) | > 100 µM | > 100 µM (inactive) | > 100 µM (inactive) | > 100 µM (inactive) | 60.3 µM (inactive) |  | 24.4 µM (inactive) | > 100 µM (inactive) |  | > 100 µM (inactive) | > 100 µM (inactive) | 95.5 µM (inactive) | 95.3 µM (inactive) | > 100 µM (inactive) | > 100 µM (inactive) |
